Source: the supplement of paper PMC10307832

Columns and labels:
Assay in all cases: relative viability (nuclei count vs DMSO), 5 days (fraction); higher = more cells survive
LCLC-103H = test system: LCLC-103H
Outline: (§1)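 Five library-drug doses in √10 steps were combined with a fixed anchor-drug dose, or a single drug was given alone, by pin tool to lung cancer cell lines in 1536-well plates the day after seeding. Nuclei were stained and counted after 5 days. Relative viability is the nuclei count in treated wells over that in vehicle wells, taken as the median of duplicate plates.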

LXF-289 = test system: LXF-289
Outline: as §1

NCI-H1355 = test system: NCI-H1355
Outline: as §1

NCI-H1563 = test system: NCI-H1563
Outline: as §1

NCI-H1651 = test system: NCI-H1651
Outline: as §1

NCI-H1755 = test system: NCI-H1755
Outline: as §1

NCI-H1792 = test system: NCI-H1792
Outline: as §1

NCI-H1915 = test system: NCI-H1915
Outline: as §1

NCI-H2347 = test system: NCI-H2347
Outline: as §1

NCI-H3122 = test system: NCI-H3122
Outline: as §1

NCI-H322M = test system: NCI-H322M
Outline: as §1

NCI-H441 = test system: NCI-H441
Outline: as §1

NCI-H460 = test system: NCI-H460
Outline: as §1

NCI-H520 = test system: NCI-H520
Outline: as §1

NCI-H522 = test system: NCI-H522
Outline: as §1

NCI-H596 = test system: NCI-H596
Outline: as §1

NCI-H661 = test system: NCI-H661
Outline: as §1

NCI-H727 = test system: NCI-H727
Outline: as §1

PC-14 = test system: PC-14
Outline: as §1

RERF-LC-KJ = test system: RERF-LC-KJ
Outline: as §1

SK-MES-1 = test system: SK-MES-1
Outline: as §1

SW 900 = test system: SW 900
Outline: as §1

## Nc1ccn([C@@H]2O[C@H](CO)[C@@H](O)[C@@H]2O)c(=O)n1 [Cytarabine] + CCNC(=O)c1noc(-c2cc(C(C)C)c(O)cc2O)c1-c1ccc(CN2CCOCC2)cc1 [Luminespib] (partner 0.01 µM)
LCLC-103H; first compound 0.005 µM
  relative viability: 0.96
LCLC-103H; first compound 0.01581 µM
  relative viability: 1.05
LCLC-103H; first compound 0.05 µM
  relative viability: 1.03
LCLC-103H; first compound 0.1581 µM
  relative viability: 0.909
LCLC-103H; first compound 0.5 µM
  relative viability: 0.947
LXF-289; first compound 0.005 µM
  relative viability: 0.673
LXF-289; first compound 0.01581 µM
  relative viability: 0.665
LXF-289; first compound 0.05 µM
  relative viability: 0.43
LXF-289; first compound 0.1581 µM
  relative viability: 0.266
LXF-289; first compound 0.5 µM
  relative viability: 0.149
NCI-H1355; first compound 0.005 µM
  relative viability: 0.612
NCI-H1355; first compound 0.01581 µM
  relative viability: 0.734
NCI-H1355; first compound 0.05 µM
  relative viability: 0.623
NCI-H1355; first compound 0.1581 µM
  relative viability: 0.344
NCI-H1355; first compound 0.5 µM
  relative viability: 0.402
NCI-H1563; first compound 0.005 µM
  relative viability: 0.628
NCI-H1563; first compound 0.01581 µM
  relative viability: 0.506
NCI-H1563; first compound 0.05 µM
  relative viability: 0.432
NCI-H1563; first compound 0.1581 µM
  relative viability: 0.407
NCI-H1563; first compound 0.5 µM
  relative viability: 0.455
NCI-H1651; first compound 0.005 µM
  relative viability: 0.751
NCI-H1651; first compound 0.01581 µM
  relative viability: 1.02
NCI-H1651; first compound 0.05 µM
  relative viability: 0.954
NCI-H1651; first compound 0.1581 µM
  relative viability: 0.705
NCI-H1651; first compound 0.5 µM
  relative viability: 0.262
NCI-H1755; first compound 0.005 µM
  relative viability: 0.879
NCI-H1755; first compound 0.01581 µM
  relative viability: 0.222
NCI-H1755; first compound 0.05 µM
  relative viability: 0.328
NCI-H1755; first compound 0.1581 µM
  relative viability: 0.274
NCI-H1755; first compound 0.5 µM
  relative viability: 0.378
NCI-H1792; first compound 0.01581 µM
  relative viability: 0.431
NCI-H1792; first compound 0.05 µM
  relative viability: 0.366
NCI-H1792; first compound 0.1581 µM
  relative viability: 0.313
NCI-H1792; first compound 0.5 µM
  relative viability: 0.271
NCI-H1915; first compound 0.005 µM
  relative viability: 0.622
NCI-H1915; first compound 0.01581 µM
  relative viability: 0.773
NCI-H1915; first compound 0.05 µM
  relative viability: 0.871
NCI-H1915; first compound 0.1581 µM
  relative viability: 0.486
NCI-H1915; first compound 0.5 µM
  relative viability: 0.435
NCI-H2347; first compound 0.005 µM
  relative viability: 0.284
NCI-H2347; first compound 0.01581 µM
  relative viability: 0.402
NCI-H2347; first compound 0.05 µM
  relative viability: 0.39
NCI-H2347; first compound 0.1581 µM
  relative viability: 0.255
NCI-H2347; first compound 0.5 µM
  relative viability: 0.411
NCI-H3122; first compound 0.005 µM
  relative viability: 0.0849
NCI-H3122; first compound 0.01581 µM
  relative viability: 0.0661
NCI-H3122; first compound 0.05 µM
  relative viability: 0.0881
NCI-H3122; first compound 0.1581 µM
  relative viability: 0.0776
NCI-H3122; first compound 0.5 µM
  relative viability: 0.0754
NCI-H322M; first compound 0.005 µM
  relative viability: 0.812
NCI-H322M; first compound 0.01581 µM
  relative viability: 0.685
NCI-H322M; first compound 0.05 µM
  relative viability: 0.514
NCI-H322M; first compound 0.1581 µM
  relative viability: 0.387
NCI-H322M; first compound 0.5 µM
  relative viability: 0.351
NCI-H441; first compound 0.005 µM
  relative viability: 0.283
NCI-H441; first compound 0.01581 µM
  relative viability: 0.252
NCI-H441; first compound 0.05 µM
  relative viability: 0.354
NCI-H441; first compound 0.1581 µM
  relative viability: 0.266
NCI-H441; first compound 0.5 µM
  relative viability: 0.271
NCI-H460; first compound 0.005 µM
  relative viability: 0.036
NCI-H460; first compound 0.01581 µM
  relative viability: 0.0332
NCI-H460; first compound 0.05 µM
  relative viability: 0.0248
NCI-H460; first compound 0.1581 µM
  relative viability: 0.0172
NCI-H460; first compound 0.5 µM
  relative viability: 0.0144
NCI-H520; first compound 0.005 µM
  relative viability: 0.218
NCI-H520; first compound 0.01581 µM
  relative viability: 0.216
NCI-H520; first compound 0.05 µM
  relative viability: 0.2
NCI-H520; first compound 0.1581 µM
  relative viability: 0.233
NCI-H520; first compound 0.5 µM
  relative viability: 0.223
NCI-H522; first compound 0.005 µM
  relative viability: 1.09
NCI-H522; first compound 0.01581 µM
  relative viability: 0.953
NCI-H522; first compound 0.05 µM
  relative viability: 0.968
NCI-H522; first compound 0.1581 µM
  relative viability: 0.422
NCI-H522; first compound 0.5 µM
  relative viability: 0.438
NCI-H596; first compound 0.005 µM
  relative viability: 0.933
NCI-H596; first compound 0.01581 µM
  relative viability: 0.841
NCI-H596; first compound 0.05 µM
  relative viability: 0.685
NCI-H596; first compound 0.1581 µM
  relative viability: 0.548
NCI-H596; first compound 0.5 µM
  relative viability: 0.388
NCI-H661; first compound 0.005 µM
  relative viability: 0.805
NCI-H661; first compound 0.01581 µM
  relative viability: 0.873
NCI-H661; first compound 0.05 µM
  relative viability: 0.766
NCI-H661; first compound 0.1581 µM
  relative viability: 0.511
NCI-H661; first compound 0.5 µM
  relative viability: 0.37
NCI-H727; first compound 0.005 µM
  relative viability: 0.22
NCI-H727; first compound 0.01581 µM
  relative viability: 0.527
NCI-H727; first compound 0.05 µM
  relative viability: 0.475
NCI-H727; first compound 0.1581 µM
  relative viability: 0.341
NCI-H727; first compound 0.5 µM
  relative viability: 0.309
PC-14; first compound 0.005 µM
  relative viability: 0.172
PC-14; first compound 0.01581 µM
  relative viability: 0.133
PC-14; first compound 0.05 µM
  relative viability: 0.131
PC-14; first compound 0.1581 µM
  relative viability: 0.131
PC-14; first compound 0.5 µM
  relative viability: 0.0979
RERF-LC-KJ; first compound 0.005 µM
  relative viability: 0.968
RERF-LC-KJ; first compound 0.01581 µM
  relative viability: 1.04
RERF-LC-KJ; first compound 0.05 µM
  relative viability: 0.977
RERF-LC-KJ; first compound 0.1581 µM
  relative viability: 0.38
RERF-LC-KJ; first compound 0.5 µM
  relative viability: 0.416
SK-MES-1; first compound 0.005 µM
  relative viability: 0.934
SK-MES-1; first compound 0.01581 µM
  relative viability: 0.565
SK-MES-1; first compound 0.05 µM
  relative viability: 0.319
SK-MES-1; first compound 0.1581 µM
  relative viability: 0.226
SK-MES-1; first compound 0.5 µM
  relative viability: 0.232
SW 900; first compound 0.005 µM
  relative viability: 0.16
SW 900; first compound 0.01581 µM
  relative viability: 0.184
SW 900; first compound 0.05 µM
  relative viability: 0.186
SW 900; first compound 0.1581 µM
  relative viability: 0.142
SW 900; first compound 0.5 µM
  relative viability: 0.137
